According to patent US10934304B2, “Spirocyclic compounds” (Recurium IP Holdings, LLC, priority 2016, dated 2021):

Biological target: ERK2 (Homo sapiens (Human), UniProt P28482)
Assay: Active ERK1 and ERK2 Kinase Assay (Mobility Shift Assay)
Assay type: biochemical
Conditions: activated ERK2, Mobility Shift Assay
Experimental: Activated ERK1 and ERK2 activity was determined in a Mobility Shift Assay (MSA) format as follows: Compound and kinase solution were prepared with assay buffer (20 mM HEPES, 0.01% Triton X-100, 2 mM DTT, pH7.5) and mixed and incubated in for 30 mins at rt. ERK1 & ERK2 were then activated by the addition of F1-Substrate, ATP and metal solution and incubated for 1 h at rt. After 1 h, the reaction was terminated by the addition of […] of Termination Buffer (QuickScout Screening Assist MSA; Carna Biosciences) to the well. The reaction mixture was applied to LabChip™ system (PerkinElmer), and the product and substrate peptide peaks were separated, analyzed and quantitated. The kinase reaction is evaluated by the product ratio calculated from peak heights of product (P) and substrate(S) peptides (P/(P+S)).

ERK2, sequence (P28482 whole entry): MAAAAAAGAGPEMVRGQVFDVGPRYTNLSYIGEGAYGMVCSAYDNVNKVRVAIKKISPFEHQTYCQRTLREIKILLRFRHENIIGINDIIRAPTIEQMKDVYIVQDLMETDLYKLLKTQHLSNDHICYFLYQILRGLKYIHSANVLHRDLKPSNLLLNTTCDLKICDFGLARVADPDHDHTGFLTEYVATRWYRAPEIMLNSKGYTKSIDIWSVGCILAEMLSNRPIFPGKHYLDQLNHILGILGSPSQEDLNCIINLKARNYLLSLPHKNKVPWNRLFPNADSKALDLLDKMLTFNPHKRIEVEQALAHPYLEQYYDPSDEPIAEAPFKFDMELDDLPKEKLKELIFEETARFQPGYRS

IC50 [nM]	Compound
≤ 50	Cn1cnc(-c2ccc(C3=CCN(C(=O)CN4CC[C@]5(CCN(c6ccc7[nH]nc(-c8ccc(C#N)cc8)c7n6)C5=O)C4)CC3)cc2)n1 [Example 27]
≤ 50	CC(C)c1nc2cc(-c3n[nH]c4ccc(N5CC[C@]6(CCN(CC(=O)N7CC=C(c8ccc(-c9ncn(C)n9)cc8)CC7)C6)C5=O)nc34)ccc2o1 [Example 91]
50 to 250	Cn1ccc(-c2n[nH]c3ccc(N4CC[C@]5(CCN(CC(=O)N6CC=C(c7ccc(-c8ncn(C)n8)cc7)CC6)C5)C4=O)nc23)n1 [Example 39]
≥ 250	CC(C)Oc1ccc(-c2n[nH]c3ccc(N4CC[C@]5(CCN(CC(=O)N6CC=C(c7ccc(-c8ncn(C)n8)cc7)CC6)C5)C4=O)c(F)c23)cn1 [Example 1, (S)-2-(4-Fluoro-3-(6-isopropoxypyridin-3-yl)-1H-indazol-5-yl)-7-(2-(4-(4-(1-methyl-1H-1,2,4-triazol-3-yl)phenyl)-5,6-dihydropyridin-1(2H)-yl)-2-oxoethyl)-2,7-diazaspiro[4.4]nonan-1-one]
≤ 50	Cn1cnc(-c2ccc(C3=CCN(C(=O)CN4CC[C@]5(CCN(c6ccc7[nH]nc(C8CCS(=O)(=O)CC8)c7c6)C5=O)C4)CC3)cc2)n1 [Example 7, (S)-7-(2-(4-(4-(1-Methyl-1H-1,2,4-triazol-3-yl)phenyl)-5,6-dihydropyridin-1(2H)-yl)-2-oxoethyl)-2-(3-(tetrahydro-2H-thiopyran 1,1-dioxide-4-yl)-1H-indazol-5-yl)-2,7-diazaspiro[4.4]nonan-1-one]

Compound	IC50 [nM]
CC1CC(c2n[nH]c3ccc(N4CCC5(CCN(CC(=O)N6CC=C(c7ccc(-c8nn(C)c(=O)o8)cc7)CC6)C5)C4=O)nc23)CC(C)O1 (centres unmarked) [Example 52]	≤ 50
Cn1nc(-c2ccc(C3=CCN(C(=O)CN4CC[C@]5(CCN(c6ccc7[nH]nc(-c8ccc(C#N)c(Cl)c8)c7c6)C5=O)C4)CC3)cc2)oc1=O [Example 14]	≤ 50

Test system: A375 (melanoma) cells
Assay: Proliferation Assay (CellTiter-Glo)
Assay type: cell-based
Conditions: 3 days incubation, CellTiter-Glo luminescence
Experimental: A375 (melanoma), Colo-205 (colon cancer), Miapaca (pancreatic), HPAFII (pancreatic), sNF02.0 (neurofibromatosis type 1), sNF96.2 (neurofibromatosis type 1) and 8505 (Thyroid) cells were grown and maintained in RPMI-1640 medium containing 100 U/mL penicillin-streptomycin and 10% fetal bovine serum. Cells were in growth medium in 96-well opaque-walled clear bottom plates and incubated in the CO2 incubator overnight before treatment. Cells were treated with compounds diluted in DMSO and a 10 point 3-fold serial dilutions were done. Plates were placed in 37° C., 5% CO2 to incubate for 3 days. Before they were developed by adding 100 μL of CellTiter-Glo reagent (Promega) to the assay plate, plates were shaken briefly for 2 mins and allowed to incubate at room temperature for 10 mins. The bottom of the plates was pasted with white back seal and luminescence was recorded with Flexstation3 with setting of luminescence, integration time 500 ms.
Compounds of Formula (I), (II) and (III) are active in this assay as noted in Table 2.

IC50 [nM]	Compound
≤ 500	COc1ccc(F)c(-c2n[nH]c3ccc(N4CC[C@]5(CCN(CC(=O)N6CCC(c7ccc(-c8ncn(C)n8)cc7)CC6)C5)C4=O)cc23)n1 [Example 75]
≥ 1000	CC(C)Oc1ccc(-c2n[nH]c3ccc(N4CCC5(CCN(C(C)C(=O)N6CC=C(c7ncc(-c8ncn(C)n8)s7)CC6)C5)C4=O)nc23)cn1 (mixture of isomers) [Example 95]
500 to 1000	CC(C)c1nc2cc(-c3n[nH]c4ccc(N5CC[C@]6(CCN(CC(=O)N7CC=C(c8ccc(-c9ncn(C)n9)cc8)CC7)C6)C5=O)nc34)ccc2o1 [Example 91]
≤ 500	CC(C)Oc1ccc(-c2n[nH]c3ccc(N4CC[C@]5(CCN(CC(=O)N6CC=C(c7ccc(-c8ncn(C)n8)c(F)c7)CC6)C5)C4=O)nc23)cc1F [Example 117]
≥ 1000	CC(C)Oc1cnc(-c2n[nH]c3ccc(N4CC[C@]5(CCN(CC(=O)N6CC=C(c7ccc(-c8ncn(C)n8)cc7)CC6)C5)C4=O)cc23)c(F)c1 [Example 78]
≤ 500	CC(C)Oc1ccc(-c2n[nH]c3ccc(N4CC[C@]5(CCN(CC(=O)N6CC=C(c7ncc(-c8cn(C)cn8)s7)CC6)C5)C4=O)nc23)cn1 [Example 99]
≤ 500	CC(C)Oc1ccc(-c2n[nH]c3ccc(N4CC[C@]5(CCN(CC(=O)N6CC=C(c7ncc(-c8ncn(C)n8)s7)CC6)C5)C4=O)nc23)cc1 [Example 94]
≤ 500	CC(C)Oc1ccc(-c2n[nH]c3ccc(N4CC[C@]5(CCN(CC(=O)N6CCC(c7ncc(-c8ncn(C)n8)s7)CC6)C5)C4=O)nc23)cn1 [Example 86]
≤ 500	CC(C)Oc1ccc(-c2n[nH]c3ccc(N4CC[C@]5(CCN(CC(=O)N6CC=C(c7ccc(-c8ncn(CCN(C)C)n8)cc7)CC6)C5)C4=O)nc23)cn1 [Example 97]
≤ 500	CC(C)Oc1ccc(-c2n[nH]c3ccc(N4CCC5(CCN(CC(=O)N6CC=C(c7ccc(-c8ncn(C)n8)cc7)CC6)C5)C4=O)nc23)cn1 (centres unmarked) [Example 83]
≤ 500	Cc1n[nH]c2ccc(-c3n[nH]c4ccc(N5CC[C@]6(CCN(CC(=O)N7CC=C(c8ccc(-c9ncn(C)n9)cc8)CC7)C6)C5=O)nc34)cc12 [Example 100]
≤ 500	Cn1cnc(-c2cnc(C3=CCN(C(=O)CN4CC[C@]5(CCN(c6ccc7[nH]nc(-c8ccc(OC9CCC9)nc8)c7n6)C5=O)C4)CC3)s2)n1 [Example 90]
≥ 1000	CC(C)Oc1ccc(-c2n[nH]c3ccc(N4CC[C@]5(CCN(CC(=O)N6CC=C(c7ccc(-c8cn(C)cn8)cc7)CC6)C5)C4=O)nc23)cn1 [Example 98]
≤ 500	CCn1cnc(-c2cnc(C3=CCN(C(=O)CN4CC[C@]5(CCN(c6ccc7[nH]nc(-c8ccc(OC(C)C)nc8)c7n6)C5=O)C4)CC3)s2)n1 [Example 88]
≤ 500	CC(C)Oc1ccc(-c2n[nH]c3ccc(N4CC[C@]5(CCN(CC(=O)N6CC=C(c7ncc(-c8ncn(C)n8)s7)CC6)C5)C4=O)nc23)cc1F [Example 118]
≤ 500	CC(C)Oc1ccc(-c2n[nH]c3ccc(N4CCC5(CCN(CC(=O)N6CCN(c7ccc(-c8ncn(C)n8)cc7)CC6C)C5)C4=O)nc23)cn1 (mixture of isomers) [Example 85]
500 to 1000	Cn1cnc(-c2ccc(C3=CCN(C(=O)CN4CC[C@]5(CCN(c6ccc7[nH]nc(-c8ccc(F)c(N9CCCC9)n8)c7c6)C5=O)C4)CC3)cc2)n1 [Example 119]
≥ 1000	CC(C(=O)N1CC=C(c2ncc(-c3ncn(C)n3)s2)CC1)N1CCC2(CCN(c3ccc4[nH]nc(-c5ccc(F)cc5)c4n3)C2=O)C1 (mixture of isomers) [Example 96]
≤ 500	CC(C)Oc1ccc(-c2n[nH]c3ccc(N4CC[C@]5(CCN(CC(=O)N6CCN(c7ncc(-c8ncn(C)n8)s7)CC6)C5)C4=O)nc23)cn1 [Example 87]
≤ 500	CC(C)Oc1ccc(-c2n[nH]c3ccc(N4CC[C@]5(CCN(CC(=O)N6CC=C(c7ccc(-c8ncn(C)n8)cc7)CC6)C5)C4=O)nc23)cc1F [Example 116]

Compound	IC50 [nM]
CC1CC(c2n[nH]c3ccc(N4CCC5(CCN(CC(=O)N6CC=C(c7ccc(-c8nn(C)c(=O)o8)cc7)CC6)C5)C4=O)nc23)CC(C)O1 (centres unmarked) [Example 52]	≤ 500
Cn1nc(-c2ccc(C3=CCN(C(=O)CN4CC[C@]5(CCN(c6ccc7[nH]nc(-c8ccc(C#N)c(Cl)c8)c7c6)C5=O)C4)CC3)cc2)oc1=O [Example 14]	≤ 500

Same assay, conditions: Homo sapiens, A-375, 72 h, 3 days incubation, CellTiter-Glo luminescence

IC50 [nM]	Compound
≤ 500	Cc1noc2ccc(-c3n[nH]c4ccc(N5CC[C@]6(CCN(CC(=O)N7CC=C(c8ccc(-c9ncn(C)n9)cc8)CC7)C6)C5=O)nc34)cc12 [Example 101]
≤ 500	CC(C)Oc1ccc(-c2n[nH]c3ccc(N4CC[C@]5(CCN(CC(=O)N6CC=C(c7ccc(-c8ncn(C)n8)cc7)CC6)C5)C4=O)cc23)cc1 [Example 109]
≤ 500	Cn1cnc(-c2ccc(C3=CCN(C(=O)CN4CC[C@]5(CCN(c6ccc7[nH]nc(-c8ccc(C#N)cc8)c7n6)C5=O)C4)CC3)cc2)n1 [Example 27]
≤ 500	CC(C)n1cc(-c2n[nH]c3ccc(N4CC[C@]5(CCN(CC(=O)N6CC=C(c7ccc(-c8ncn(C)n8)cc7)CC6)C5)C4=O)nc23)ccc1=O [Example 111]
≥ 1000	Cn1ccc(-c2n[nH]c3ccc(N4CC[C@]5(CCN(CC(=O)N6CC=C(c7ccc(-c8ncn(C)n8)cc7)CC6)C5)C4=O)nc23)n1 [Example 39]
≥ 1000	CC(C)Oc1ccc(-c2n[nH]c3ccc(N4CC[C@]5(CCN(CC(=O)N6CC=C(c7ccc(-c8ncn(C)n8)cc7)CC6)C5)C4=O)c(F)c23)cn1 [Example 1, (S)-2-(4-Fluoro-3-(6-isopropoxypyridin-3-yl)-1H-indazol-5-yl)-7-(2-(4-(4-(1-methyl-1H-1,2,4-triazol-3-yl)phenyl)-5,6-dihydropyridin-1(2H)-yl)-2-oxoethyl)-2,7-diazaspiro[4.4]nonan-1-one]
≥ 1000	Cn1cnc(-c2ccc(C3=CCN(C(=O)CN4CC[C@]5(CCN(c6ccc7[nH]nc(C8CCS(=O)(=O)CC8)c7c6)C5=O)C4)CC3)cc2)n1 [Example 7, (S)-7-(2-(4-(4-(1-Methyl-1H-1,2,4-triazol-3-yl)phenyl)-5,6-dihydropyridin-1(2H)-yl)-2-oxoethyl)-2-(3-(tetrahydro-2H-thiopyran 1,1-dioxide-4-yl)-1H-indazol-5-yl)-2,7-diazaspiro[4.4]nonan-1-one]
≤ 500	CC(C)Oc1ccc(-c2n[nH]c3ccc(N4CC[C@]5(CCN(CC(=O)N6CCN(c7ccc(-c8ncn(C)n8)cc7)C[C@@H]6C)C5)C4=O)nc23)cn1 [Example 115]
≤ 500	CC(C)Oc1ccc(-c2n[nH]c3ccc(N4CC[C@]5(CCN(CC(=O)N6CC=C(c7ccc(-c8ncn(C)n8)cc7)CC6)C5)C4=O)nc23)cc1 [Example 103]
≤ 500	Cn1cnc(-c2cnc(C3=CCN(C(=O)CN4CC[C@]5(CCN(c6ccc7[nH]nc(C8CC8)c7n6)C5=O)C4)CC3)s2)n1 [Example 113]
≥ 1000	CC(C)Oc1ccc(-c2n[nH]c3ccc(N4CC[C@]5(CCN(CC(=O)N6CCN(c7ccc(-c8ncn(C)n8)cc7)C[C@H]6C)C5)C4=O)nc23)cn1 [Example 114]
≤ 500	CC(C)Oc1ccc(-c2n[nH]c3ccc(N4CC[C@]5(CCN(CC(=O)N6CC=C(c7ccc(-c8ncn(C)n8)cn7)CC6)C5)C4=O)nc23)cc1 [Example 104]
≤ 500	COc1cc(-c2n[nH]c3ccc(N4CC[C@]5(CCN(CC(=O)N6CC=C(c7ccc(-c8ncn(C)n8)cc7)CC6)C5)C4=O)nc23)ccc1OC(C)C [Example 107]
≤ 500	CC(C)Oc1ccc(-c2n[nH]c3ccc(N4CC[C@]5(CCN(CC(=O)N6CCN(c7ncc(-c8ncn(C)n8)s7)CC6)C5)C4=O)nc23)cc1 [Example 112]
500 to 1000	CC(C)Oc1ccc(-c2n[nH]c3ccc(N4CC[C@]5(CCN(CC(=O)N6CC=C(c7ccc(-c8ncn(C)n8)nc7)CC6)C5)C4=O)nc23)cc1 [Example 105]
≤ 500	CC(C)Nc1cc(-c2c[nH]c(C(=O)N[C@H](CO)c3cccc(Cl)c3)c2)c(Cl)cn1 [BVD-523, reference compound]
500 to 1000	Cn1nccc1Nc1nccc(-c2ccn([C@H](CO)c3ccc(Cl)c(F)c3)c(=O)c2)n1 [GDC-0994, reference compound]
≤ 500	COc1cc(-c2n[nH]c3ccc(N4CC[C@]5(CCN(CC(=O)N6CC=C(c7ncc(-c8ncn(C)n8)s7)CC6)C5)C4=O)nc23)ccc1OC(C)C [Example 108]
≤ 500	Cc1ncc(-c2n[nH]c3ccc(N4CC[C@]5(CCN(CC(=O)N6CC=C(c7ccc(-c8ncn(C)n8)cc7)CC6)C5)C4=O)nc23)s1 [Example 30]
≤ 500	CC(C)Oc1ccc(-c2n[nH]c3ccc(N4CC[C@]5(CCN(CC(=O)N6CC=C(c7ncc(-c8ncn(C)n8)s7)CC6)C5)C4=O)cc23)cc1 [Example 110]
≤ 500	O=C(Nc1ccc2[nH]nc(-c3ccncc3)c2c1)[C@@H]1CCN(CC(=O)N2CCN(c3ccc(-c4ncccn4)cc3)CC2)C1 [SCH772984, reference compound]
